Measured values as given in article PMC9610999, “Itraconazole-Induced Increases in Gilteritinib Exposure Are Mediated by CYP3A and OATP1B” (Molecules, 2022).

Columns and labels:
human OATP1B1 (SLCO1B1) = molecular target: T1, human OATP1B1 (SLCO1B1) (Homo sapiens, UniProt Q9Y6L6); test: Transport inhibition assay: EβG uptake in OATP1B1 overexpressing HEK293 cells; assay type: cell-based; details: OATP1B1 overexpressing HEK293 cells vs vector control; radiolabeled EβG; 15 min pre-incubation; read-out: IC50, inhibition of OATP1B1-mediated cellular accumulation of EβG
T1 construct: expressed in transfected cells; host or cells: HEK293
T1 sequence (Q9Y6L6 1-691): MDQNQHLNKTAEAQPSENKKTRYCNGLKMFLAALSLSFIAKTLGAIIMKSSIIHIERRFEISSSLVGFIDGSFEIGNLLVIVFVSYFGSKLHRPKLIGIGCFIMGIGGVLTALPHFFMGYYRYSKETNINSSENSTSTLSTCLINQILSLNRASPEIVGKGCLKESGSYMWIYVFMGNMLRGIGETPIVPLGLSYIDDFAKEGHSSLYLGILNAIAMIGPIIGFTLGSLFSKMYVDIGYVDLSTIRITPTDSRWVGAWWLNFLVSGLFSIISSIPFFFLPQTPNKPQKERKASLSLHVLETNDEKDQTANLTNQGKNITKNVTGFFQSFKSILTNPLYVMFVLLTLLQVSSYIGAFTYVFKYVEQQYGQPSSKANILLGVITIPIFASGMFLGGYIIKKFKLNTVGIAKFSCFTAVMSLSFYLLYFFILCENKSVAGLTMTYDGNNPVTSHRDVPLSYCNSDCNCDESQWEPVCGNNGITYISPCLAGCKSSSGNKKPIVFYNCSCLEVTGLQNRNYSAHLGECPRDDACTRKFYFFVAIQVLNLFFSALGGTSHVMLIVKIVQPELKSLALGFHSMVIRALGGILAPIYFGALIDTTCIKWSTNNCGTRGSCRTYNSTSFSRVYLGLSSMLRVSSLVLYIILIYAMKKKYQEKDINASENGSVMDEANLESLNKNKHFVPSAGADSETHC
Procedure: Human embryonic kidney (HEK293) cells stably transfected with human OATP1B1 (SLCO1B1) cDNA, or an empty control vector were established and cultured as previously described. Cells were maintained in DMEM supplemented with 10% FBS, 50 µg/mL hygromycin B, 15 µg/mL blasticidin, and maintained in a humidified incubator at 37 °C with 5% CO2. Prior to plating, 24-well tissue culture plates (Thermo Fisher Scientific) were coated with poly-d-lysine. Seeding media was prepared using phenol red-free DMEM with 10% FBS with no selection agents. To the seeding media, […] of doxycycline was added to induce expression of OATP1B1.
OATP1B1 overexpressing cells and vector control cells were plated in 24-well tissue culture plates at a volume of 0.5 mL (containing 2 × 10^6 cells/mL) per well. Plates were returned to an incubator at 37 °C and transport assays were conducted 24 h later. Transport activity was measured using EβG, a prototypical substrate of OATP1B1. Experiments were conducted using phenol red- and serum-free DMEM. Intracellular levels of total radioactivity originating from EβG were assessed by liquid scintillation counting. The resulting counts were normalized to total protein levels as determined by a Pierce protein assay. The influence of gilteritinib, itraconazole, keto-itraconazole, or hydroxy-itraconazole on OATP1B1-mediated transport was assessed following a 15 min pre-incubation at various concentrations of test inhibitors followed by co-incubation of test inhibitors with EβG. Inhibition of transport activity by gilteritinib was determined by comparing the accumulation of EβG in the presence of gilteritinib, itraconazole, keto-itraconazole, or hydroxy-itraconazole to that of EβG in the presence of only the control vehicle, DMSO. The final concentration of DMSO in media was less than 0.2% in all in vitro experiments.

[1] = test system: CDCA-24G, an endogenous biomarker of OATP1B transporter function; test: Plasma CDCA-24G (endogenous biomarker of OATP1B function) in mice treated with itraconazole; assay type: in vivo
[2] = test system: OATP1B biomarkers coproporphyrin (CP) I and CPIII; parameters: method as in PMID 34049965, PMID 29777022; details: itraconazole 100 mg to human subjects; cited from earlier work

SMILES | IC50 (human OATP1B1 (SLCO1B1)) [µM] | CDCA-24G AUC0–4h ([1]; 100 mg/kg) | CDCA-24G AUC0–4h ([1]; CYP3A(−/−) female mice, itraconazole 100 mg/kg) | CDCA-24G AUC Fold Increase ([1]; CYP3A(−/−) mice, itraconazole 100 mg/kg, vs. CYP3A(−/−) untreated) [fold] | CDCA-24G AUC Fold Increase ([1]; CYP3A(−/−) mice, itraconazole 100 mg/kg, vs. WT Alone) [fold] | CDCA-24G AUC Fold Increase ([1]; Wild-type FVB mice, itraconazole 100 mg/kg, vs. CYP3A(−/−) + Itraconazole) [fold] | CDCA-24G AUC Fold Increase ([1]; Wild-type FVB mice, itraconazole 100 mg/kg, vs. WT untreated) [fold] | Effect on circulating levels of coproporphyrin (CP) I and CPIII [2]
CCC(C)n1ncn(-c2ccc(N3CCN(c4ccc(OCC5COC(Cn6cncn6)(c6ccc(Cl)cc6Cl)O5)cc4)CC3)cc2)c1=O (stereo not shown) [Itraconazole] | 27.3 | 5.10 (±1.60) ng ∗ h/mL | 3.30 (±1.00) ng ∗ h/mL | 1 | 0.9 | 1.5 | 1.3 | not associated with changes
CC(O)C(C)n1ncn(-c2ccc(N3CCN(c4ccc(OCC5COC(Cn6cncn6)(c6ccc(Cl)cc6Cl)O5)cc4)CC3)cc2)c1=O (stereo not shown) [hydroxy-itraconazole] | 2.95 | – | – | – | – | – | – | –
CC(=O)C(C)n1ncn(-c2ccc(N3CCN(c4ccc(OC[C@H]5CO[C@](Cn6cncn6)(c6ccc(Cl)cc6Cl)O5)cc4)CC3)cc2)c1=O (stereo partly shown) [keto-itraconazole] | 7.5 | – | – | – | – | – | – | –
